# Results published in publication PMC10900215 (JACS Au, 2024).
# Columns and labels:
# METTL3-14 [1] = biological target: T1, METTL3-14 (Homo sapiens, UniProt Q86U44); test: Cellular degradation assay (Western blot) in THP-1; assay type: cell-based; design: METTL3–14 degradation up to 70% of the endogenous level; endogenous in cells; host or cells: MOLM-13, KASUMI-1, THP-1, NOMO-1; conditions: THP-1, 2 μM, 24 h
# Method: (§1) MOLM-13, NOMO-1, THP-1, Kasumi-1, PC3, and DU145 cell lines were obtained from DSMZ-German Collection of Microorganisms and Cell Cultures GmbH. Cells were cultured in RPMI 1640 medium (11875093, Thermo Fisher Scientific) containing 10% FBS (16140071, Thermo Fisher Scientific) and 1% penicillin-streptomycin (15140122, Thermo Fisher Scientific) in 5% CO2 at 37 °C in a humidified incubator, with maintained cell densities at 0.5–1 × 10^6 cells/mL. All cell lines were tested negative for mycoplasma contamination (PCR-based assay by Microsynth, Switzerland).
# (§2) METTL3 (and METTL14) protein degradation was monitored by Western blot. Cells were treated with the indicated concentration of PROTACs or DMSO control (0.1% (v/v)) for 24h, 37 °C with 5% CO2. Samples were then collected and lysed with RIPA buffer with added protease inhibitors (11697498001, Roche). After SDS-PAGE, proteins were transferred to a nitrocellulose membrane, blocked (with 5% milk, 0.5% BSA in TBST buffer), and incubated overnight with primary antibodies. The following antibodies were used: GAPDH (no. 2118, Cell Signaling, 1:4000), β-actin (ab8226, Abcam, 1:2000), METTL3 (ab195352, Abcam, 1:1000), and METTL14 (ab220031, Abcam, 1:1000). Membranes were scanned using an LI-COR Odyssey DLx imager after incubation with appropriate secondary antibodies (antimouse IgG IRDye 680RD (926–68072, LI-COR, 1:10000) and goat anti-Rabbit IgG IRDye 800CW (926–32211, LI-COR, 1:10000)). Densitometry was performed in Image Studio Lite software and analyzed in GraphPad Prism 9.
# METTL3-14 [2] = biological target: T1, METTL3-14; test: Cellular degradation assay (Western blot) in NOMO-1; assay type: cell-based; design: METTL3–14 degradation up to 70% of the endogenous level; endogenous in cells; host or cells: MOLM-13, KASUMI-1, THP-1, NOMO-1; conditions: NOMO-1, 2 μM, 24 h
# Method: as §1, §2
# [3] = biological target: T2, ternary complex CRBN/PROTAC/METTL3–14 (Homo sapiens, UniProt Q86U44+Q96SW2); test: FRET-based ternary complex formation assay (TCFA); assay type: binding; conditions: for TCFA amplitude (mean ± SEM): Hook curve amplitude, fraction of the maximum of compound 16; for ECmax (nM) ± SD: PROTAC concentration at the maximum of the signal in the TCFA; for ECmax: TCFA, peak of the Hook curve
# T2 construct: methyltransferase domains (MTD) of METTL3 (residues 354–580); His6 (N, cleaved yes); made in house; host or cells: METTL3-MTD/METTL14-MTD: baculovirus/Sf9; CRBN-TBD: E. coli Rosetta (DE3), co-expressed with BirA
# T2 sequence (Q86U44 354-580): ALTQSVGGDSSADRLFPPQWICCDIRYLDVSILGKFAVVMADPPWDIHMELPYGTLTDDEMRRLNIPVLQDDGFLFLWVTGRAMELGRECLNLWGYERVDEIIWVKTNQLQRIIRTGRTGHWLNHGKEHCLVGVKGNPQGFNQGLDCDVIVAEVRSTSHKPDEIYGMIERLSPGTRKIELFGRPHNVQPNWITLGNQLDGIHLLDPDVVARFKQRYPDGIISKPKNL
# T2 sequence (Q9HCE5 107-395 partner limits assumed): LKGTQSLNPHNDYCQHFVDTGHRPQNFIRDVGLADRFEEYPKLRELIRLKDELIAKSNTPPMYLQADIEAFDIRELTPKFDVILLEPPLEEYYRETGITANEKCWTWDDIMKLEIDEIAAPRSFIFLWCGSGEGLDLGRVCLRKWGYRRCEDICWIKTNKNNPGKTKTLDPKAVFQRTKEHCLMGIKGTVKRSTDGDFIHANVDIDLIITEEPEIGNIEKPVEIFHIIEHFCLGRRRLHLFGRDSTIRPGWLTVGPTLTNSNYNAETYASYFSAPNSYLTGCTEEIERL
# T2 sequence (Q96SW2 318-442): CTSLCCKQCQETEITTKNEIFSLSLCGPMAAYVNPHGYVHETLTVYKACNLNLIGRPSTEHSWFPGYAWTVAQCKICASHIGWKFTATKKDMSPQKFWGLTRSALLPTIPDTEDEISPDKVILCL
# Procedure, shortened: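 HTRF/TR-FRET measurement of PROTAC-induced complex between GST-tagged METTL3–14 and biotinylated CRBN^TBD-Avi (10 nM final) with 0.8 nM Eu^3+ anti-GST antibody, in 50 mM HEPES pH 7.5, 150 mM NaCl, 0.1% BSA, 100 mM KF. Emission ratio used; ECmax and Hook-curve amplitude taken from Gaussian fit or highest-signal data point.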
# METTL3 = biological target: T3, METTL3 (Homo sapiens, UniProt Q86U44); test: Cellular degradation assay (Western blot) in PC3; assay type: cell-based; conditions: PC3, 2 μM, 24 h
# T3 construct: METTL3–14 degradation up to 70% of the endogenous level; endogenous in cells; host or cells: MOLM-13, PC3, DU145
# T3 sequence (Q86U44 2-580 limits assumed): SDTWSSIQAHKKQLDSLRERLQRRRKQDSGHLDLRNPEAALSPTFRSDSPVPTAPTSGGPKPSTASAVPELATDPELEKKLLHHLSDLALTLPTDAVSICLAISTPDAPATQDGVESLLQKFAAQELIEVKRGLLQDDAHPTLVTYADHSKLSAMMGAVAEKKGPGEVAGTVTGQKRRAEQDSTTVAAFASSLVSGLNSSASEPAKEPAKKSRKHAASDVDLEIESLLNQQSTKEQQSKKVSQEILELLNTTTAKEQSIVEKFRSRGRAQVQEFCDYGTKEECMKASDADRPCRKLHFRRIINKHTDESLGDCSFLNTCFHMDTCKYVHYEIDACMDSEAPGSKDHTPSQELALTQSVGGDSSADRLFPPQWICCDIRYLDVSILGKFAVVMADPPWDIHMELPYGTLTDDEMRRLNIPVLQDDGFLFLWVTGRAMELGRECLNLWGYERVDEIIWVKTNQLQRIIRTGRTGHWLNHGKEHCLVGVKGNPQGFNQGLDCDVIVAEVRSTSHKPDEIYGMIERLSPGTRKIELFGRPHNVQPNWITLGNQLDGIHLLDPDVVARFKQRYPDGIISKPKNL
# T3 sequence (Q9HCE5 whole entry partner): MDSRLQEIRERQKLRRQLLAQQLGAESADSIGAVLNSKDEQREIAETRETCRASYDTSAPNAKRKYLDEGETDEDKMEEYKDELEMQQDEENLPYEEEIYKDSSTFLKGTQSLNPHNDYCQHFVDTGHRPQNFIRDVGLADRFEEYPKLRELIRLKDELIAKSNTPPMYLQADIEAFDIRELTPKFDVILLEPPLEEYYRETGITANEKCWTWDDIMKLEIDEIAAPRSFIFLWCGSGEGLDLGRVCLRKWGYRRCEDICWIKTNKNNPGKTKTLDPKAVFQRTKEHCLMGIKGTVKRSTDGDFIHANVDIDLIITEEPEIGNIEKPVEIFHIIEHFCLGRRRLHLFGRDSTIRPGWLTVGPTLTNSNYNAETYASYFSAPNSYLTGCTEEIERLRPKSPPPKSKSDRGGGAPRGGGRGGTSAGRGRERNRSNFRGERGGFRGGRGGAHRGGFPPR
# Method: as §1
# as §2, with “Membranes were scanned using an LI-COR Odyssey DLx imager after incubation with appropriate secondary antibodies (antimouse IgG IRDye 680RD (926–68072, LI-COR, 1:10000) and goat anti-Rabbit IgG IRDye 800CW (926–32211, LI-COR, 1:10000)).” left out
# [4] = test system: m6A/A levels in polyadenylated RNA; test: UPLC-MS/MS quantification of m6A/A in polyadenylated RNA in MOLM-13; assay type: cell-based, human; conditions: MOLM-13, 2 μM, 24 h
# Method: UPLC-MS/MS was performed as previously described.[28]
# Briefly, MOLM-13 cells were seeded into 6 well plates at a density of 1 × 10^6 cells/mL in 2 mL of complete RPMI medium. Cells were treated with the indicated concentrations of compounds or DMSO control (final concentration 0.5% (v/v)) for 24 h. Following the incubation, cells were collected by centrifugation and washed once with PBS, and total RNA was extracted using 0.5 mL of GENEzol reagent according to the manufacturer’s instructions. The final volume of 50 μL of total RNA eluate was subjected to two rounds of purification using 25 μL of Sera-Mag magnetic oligo(dT) particles (Cytiva) per sample. The polyadenylated RNA was eluted with nuclease-free water in a final volume of 25 μL, and its concentration was determined using NanoDrop. One hundred nanograms of mRNA were digested to nucleosides and dephosphorylated in a one-pot reaction using 0.5 μL of nucleoside digestion mix (M0649S, NEB) in 25 μL of total reaction volume for 4 h at 37 °C. The samples were used for UPLC-MS/MS analysis without further purification steps. The data were plotted by using GraphPad Prism 9.
# T1 sequence (Q86U44 2-580 limits assumed): as the sequence (Q86U44 2-580 limits assumed) above
# T1 sequence (Q9HCE5 whole entry partner): as the sequence (Q9HCE5 whole entry partner) above
SMILES,degradation levels of METTL3 and METTL14 (METTL3-14 [1]),degradation levels of METTL3 and METTL14 (METTL3-14 [2]),TCFA amplitude (mean ± SEM) [3],ECmax (nM) ± SD [3] [nM],ECmax [3],reduction of METTL3 (METTL3) [%],m6A/A levels [4]
CC1(C)CCN(Cc2cc(F)c(N3CC(=O)NC4(CCN(c5cc(NCc6cccc(CNC(=O)CCCNc7cccc8c7C(=O)N(C7CCC(=O)NC7=O)C8=O)c6)ncn5)CC4)C3)cc2F)CC1 (stereo not drawn) [Compound 14],comparable to those in MOLM-13,comparable to those in MOLM-13,1.2 ± 0.0,250 ± 0,submicromolar,–,–
CC1(C)CCN(Cc2cc(F)c(N3CC(=O)NC4(CCN(c5cc(NCc6cccc(CNC(=O)CCCCCCCCCCn7cc(CNc8cccc9c8C(=O)N(C8CCC(=O)NC8=O)C9=O)nn7)c6)ncn5)CC4)C3)cc2F)CC1 (stereo not drawn) [Compound 20],comparable to those in MOLM-13,comparable to those in MOLM-13,0.6 ± 0.0,860 ± 240,submicromolar,48,–
CC1(C)CCN(Cc2cc(F)c(N3CC(=O)NC4(CCN(c5cc(NCC6CCN(C(=O)CCCNc7cccc8c7C(=O)N(C7CCC(=O)NC7=O)C8=O)CC6)ncn5)CC4)C3)cc2F)CC1 (stereo not drawn) [Compound 22],comparable to those in MOLM-13,comparable to those in MOLM-13,1.1 ± 0.1,190 ± 90,–,64,slight reduction
CC1(C)CCN(Cc2cc(F)c(N3CC(=O)NC4(CCN(c5cc(NCC6CCN(C(=O)CCCCCNc7cccc8c7C(=O)N(C7CCC(=O)NC7=O)C8=O)CC6)ncn5)CC4)C3)cc2F)CC1 (stereo not drawn) [Compound 24],comparable to those in MOLM-13,comparable to those in MOLM-13,1.2 ± 0.0,470 ± 80,submicromolar,–,–
CC1(C)CCN(Cc2cc(F)c(N3CC(=O)NC4(CCN(c5cc(NCCN6CCN(C(=O)CCCCCNc7cccc8c7C(=O)N(C7CCC(=O)NC7=O)C8=O)CC6)ncn5)CC4)C3)cc2F)CC1 (stereo not drawn) [Compound 30],comparable to those in MOLM-13,comparable to those in MOLM-13,1.0 ± 0.1,70 ± 30,submicromolar,–,–
